Here are results for 53 compounds from patent US6506749B2, “7-oxo-pyridopyrimidines (I)” (Syntex (U.S.A.) LLC, priority 2000, dated 2003).

Structures are written as SMILES. Where a name gives a salt, the structure may show the parent alone.

System in one data set: not given
Test: not given
Conditions: not given
`O=c1[nH]c2nc(N[C@H]3CC[C@H](O)CC3)ncc2cc1-c1ccccc1Cl` (as salt: hydrochloride) [Example 11, 2-(trans-4-hydroxycyclohexylamino)-6-(2-chlorophenyl)-pyrido[2,3-d]pyrimidin-7-ol] showed a melting point of 191.1 to 194.3 °C.
Turning to `Cl.Cn1c(=O)c(-c2ccccc2Cl)cc2cnc(NC3CCC4(CC3)OCC(CO)CO4)nc21` (stereo not drawn), the melting point lay within 146 to 150 °C.
`CNC(=O)CN1CCC(Nc2ncc3cc(-c4ccccc4Cl)c(=O)n(C)c3n2)CC1.Cl` came in with a melting point of 64 to 102.6 °C.
Consider `Cl.O=c1[nH]c2nc(NC3CCNCC3)ncc2cc1-c1ccccc1Cl`, for which the melting point was over 300 °C.
Consider `CCn1c(=O)c(-c2ccccc2Cl)cc2cnc(NC3CCOCC3)nc21.Cl` [Cpd 136], for which the melting point is 185.3 to 190.1 °C.
On to `Cc1ccccc1-c1cc2cnc(NC3CCN(S(=O)(=O)C(C)C)CC3)nc2n(C)c1=O.Cl`, for which the melting point lay in the range of 142 to 149 °C.
For `CN(C)S(=O)(=O)N[C@H]1CC[C@H](Nc2ncc3cc(-c4ccccc4Cl)c(=O)n(C)c3n2)CC1.Cl`, the melting point lay within 226.5 to 229 °C.
The compound `CC(C)S(=O)(=O)N1CCC(Nc2ncc3cc(-c4ccccc4Cl)c(=O)n(C)c3n2)CC1.Cl` registered a melting point of 132 to 136 °C.
For `Cn1c(=O)c(-c2ccccc2Cl)cc2cnc(N[C@H]3CC[C@H](N)CC3)nc21` (as salt: HCl) [Example 38], the melting point lay within 163.4 to 171.1 °C.
On the same count and under the same terms, as for `Cl.O=C1CCC(Nc2ncc3cc(-c4ccccc4Cl)c(=O)n(-c4ccc(F)cc4)c3n2)CC1`, the figure is 242.7 to 243.6 °C.
The compound `Cl.Cn1c(=O)c(-c2ccccc2Cl)cc2cnc(NCC3CCC(O)CC3)nc21` (stereo not drawn) registered a melting point of 148 to 151.5 °C.
With `COC(=O)O[C@H]1CC[C@H](Nc2ncc3cc(-c4ccccc4Cl)c(=O)n(C)c3n2)CC1.Cl`, the melting point lay in the range of 213.9 to 214.4 °C.
On the same count and under the same terms, as for `Cl.O=c1c(-c2ccccc2Cl)cc2cnc(NC3CCS(=O)(=O)CC3)nc2n1CCO`, the figure is 182 to 186 °C; as for `CS(=O)(=O)N1CCC(Nc2ncc3cc(-c4ccccc4Cl)c(=O)n(-c4ccc(F)cc4)c3n2)CC1` (as salt: HCl) [Example 96], 165 to 169 °C; as for `Cn1c(=O)c(-c2ccccc2Cl)cc2cnc(NC3(CO)CCCC3)nc21` (as salt: salt) [Cpd 2], 213.7 to 214.6 °C.
`CC(C)(O)Cn1c(=O)c(-c2ccccc2Cl)cc2cnc(NC3CCOCC3)nc21` [Cpd 117] showed a melting point of 189 to 191.5 °C.
`CN(C)S(=O)(=O)N[C@H]1CC[C@H](Nc2ncc3cc(-c4ccccc4Cl)c(=O)[nH]c3n2)CC1.Cl` returned a melting point of 262.2 to 262.5 °C.
Take `Cl.Cn1c(=O)c(-c2ccccc2Cl)cc2cnc(NC3CCN(S(=O)(=O)C(F)(F)F)CC3)nc21`: the melting point lay in the range of 134 to 140 °C.
`Cl.Cn1c(=O)c(-c2ccccc2Cl)cc2cnc(NC3CCN(C=O)CC3)nc21` registered a melting point of 143 to 148 °C.
As for `Cl.Nn1c(=O)c(-c2ccccc2Cl)cc2cnc(NC3CCOCC3)nc21`, the melting point is 207.1 to 215.9 °C.
As for `Cl.Cn1cc(/C=N\C(=N)NC2CCOCC2)cc(-c2ccccc2N)c1=O`, the melting point lay in the range of 210.7 to 211.9 °C.
Same read-out and setting: as for `Cn1c(=O)c(-c2ccccc2Cl)cc2cnc(NC3CCC(OC=O)CC3)nc21` (stereo not drawn) [Cpd 4], the figure is 196.1 to 196.6 °C.
The same measure, in the same setting: as for `Cc1ccccc1-c1cc2cnc(NC3CCSCC3)nc2n(C)c1=O` [Cpd 140], the figure is 186.6 to 188.1 °C; as for `Cl.Cn1c(=O)c(-c2ccccc2Cl)cc2cnc(NC3CCC(CO)CC3)nc21` (stereo not drawn), 153.6 to 157 °C.
`CC(=O)OC1CCC(Nc2ncc3cc(-c4ccccc4Cl)c(=O)n(C)c3n2)CC1` (stereo not drawn) [Cpd 5] yielded a melting point of 200.9 to 201.2 °C.
As to `CC(CCO)Nc1ncc2cc(-c3ccccc3Cl)c(=O)n(C)c2n1.Cl` (stereo not drawn), the melting point fell in the range of 180.7 to 189.2 °C.
For `Cc1ccccc1-c1cc2cnc(NC3CCN(S(=O)(=O)CC(F)(F)F)CC3)nc2n(C)c1=O.Cl` [Cpd 128], the melting point is 200 to 204 °C.
`Cl.Cn1c(=O)c(-c2ccccc2Cl)cc2cnc(N[C@H]3CC[C@@](C)(O)CC3)nc21`: the melting point is 156 to 169 °C.
`CO[C@H]1CC[C@H](Nc2ncc3cc(-c4ccccc4Cl)c(=O)n(C)c3n2)CC1.Cl` showed a melting point of 218.2 to 218.5 °C.
The compound `O=C1c2ccccc2C(=O)N1CCn1c(=O)c(-c2ccccc2Cl)cc2cnc(N[C@H]3CC[C@H](O)CC3)nc21` (as salt: HCl) [Example 77] displayed a melting point of 208 to 210 °C.
`CC(=O)O[C@H]1CC[C@H](Nc2ncc3cc(-c4ccccc4Cl)c(=O)[nH]c3n2)CC1.Cl` had a melting point of over 300 °C.
Turning to `CS(=O)(=O)N[C@H]1CC[C@H](Nc2ncc3cc(-c4ccccc4Cl)c(=O)[nH]c3n2)CC1.Cl`, the melting point is over 300 °C.
`Cl.Nn1c(=O)c(-c2ccccc2Cl)cc2cnc(NC3CCS(=O)(=O)CC3)nc21` registered a melting point of 240 to 243 °C.
With `Cl.O=c1c(-c2ccccc2Cl)cc2cnc(NC3CCOCC3)nc2n1-c1ccc(F)cc1`, the melting point was 150 to 154 °C.
`CCCS(=O)(=O)N1CCC(Nc2ncc3cc(-c4ccccc4C)c(=O)n(C)c3n2)CC1.Cl` [Cpd 126] showed a melting point of 211.7 to 212.6 °C.
Compound `CS(=O)(=O)N1CCC(Nc2ncc3cc(-c4ccccc4Cl)c(=O)n(C4CC4)c3n2)CC1` (as salt: hydrochloride) [Example 88] registered a melting point of 128 to 141.5 °C.
As to `Cl.N#CCn1c(=O)c(-c2ccccc2Cl)cc2cnc(N[C@H]3CC[C@H](O)CC3)nc21` [Example 44], the melting point is 232.1 to 233.4 °C.
`Cl.O=c1[nH]c2nc(NC3CCOCC3)ncc2cc1-c1ccccc1Cl` came in with a melting point of over 300 °C.
As for `O=C1CCC(Nc2ncc3cc(-c4ccccc4Cl)c(=O)n(CC(F)(F)F)c3n2)CC1` (as salt: hydrochloride) [Example 59], the melting point was 251.2 to 252 °C.
As to `Cc1ccccc1-c1cc2cnc(NC3CCN(S(C)(=O)=O)CC3)nc2n(C)c1=O.Cl`, the melting point was 221.4 to 221.8 °C.
Take `Cl.Cn1c(=O)c(-c2ccccc2Cl)cc2cnc(NN3CCN(CCO)CC3)nc21`: the melting point fell in the range of 274.4 to 274.8 °C.
For `Cn1c(=O)c(-c2ccccc2Cl)cc2cnc(N[C@H]3CC[C@H](O)CC3)nc21` (as salt: salt) [Cpd 1], the melting point fell in the range of 163.4 to 171.1 °C.
Consider `CS(=O)(=O)N1CCC(Nc2ncc3cc(-c4ccccc4Cl)c(=O)n(CC(F)(F)F)c3n2)CC1.Cl`, for which the melting point fell in the range of 148.6 to 151.6 °C.
`Cl.Cn1c(=O)c(-c2ccccc2Cl)cc2cnc(NC3CCN(CCO)CC3)nc21` showed a melting point of 265.9 to 266.6 °C.
Turning to `CS(=O)(=O)N1CCC(Nc2ncc3cc(-c4ccccc4Cl)c(=O)n(N)c3n2)CC1.Cl`, the melting point is 180.7 to 213.2 °C.

The next data set deals with T1, p38 MAP kinase (Homo sapiens, UniProt Q16539).
T1 construct: made in house; host or cells: E. coli (co-expressed with SEK-1 and MEKK to phosphorylate p38)
T1 sequence (Q16539 whole entry): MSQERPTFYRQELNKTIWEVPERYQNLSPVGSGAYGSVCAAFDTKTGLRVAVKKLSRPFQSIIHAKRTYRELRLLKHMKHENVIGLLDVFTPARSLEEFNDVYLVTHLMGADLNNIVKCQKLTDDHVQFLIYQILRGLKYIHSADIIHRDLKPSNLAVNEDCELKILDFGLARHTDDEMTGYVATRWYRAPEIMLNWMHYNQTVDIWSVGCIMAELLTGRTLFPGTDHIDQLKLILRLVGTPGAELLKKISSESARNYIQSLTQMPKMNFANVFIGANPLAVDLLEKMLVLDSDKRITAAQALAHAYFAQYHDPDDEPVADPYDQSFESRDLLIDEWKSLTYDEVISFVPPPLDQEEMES
Kind of data set: in vitro inhibition of p-38 (MAP) kinase, transfer of γ-33P from ATP to Myelin Basic Protein. The class given is biochemical. The following applies: phosphorylated recombinant p38 MAP kinase; MBP substrate, γ-33P-ATP; 30° C. The protocol: This example illustrate an assay protocol for determining in vitro inhibition of p-38 (MAP) Kinase.
The phosphorylated form of the recombinant p38 MAP kinase was expressed with SEK-1 and MEKK in E. Coli and then purified by affinity chromatography using a Nickel column.
The phosphorylated p38 MAP kinase was diluted in kinase buffer (20 mM 3-(N-morpholino)propanesulfonic acid, pH 7.2, 25 mM β-glycerol phosphate, 5 mM ethylene glycol-bis(beta-aminoethyl ether)-N,N,N′,N′-tetraacetic acid, 1 mM sodium vanadate, 1 mM dithiothreitol, 40 mM magnesium chloride). Test compound dissolved in DMSO or only DMSO (control) was added and the samples were incubated for 10 min at 30° C. The kinase reaction was initiated by the addition of a substrate cocktail containing MBP and γ-^33P-ATP. After incubating for an additional 20 min at 30° C., the reaction was terminated by adding 0.75% phosphoric acid. The phosphorylated MBP was then separated from the residual γ-^33P-ATP using a phosphocellulose membrane (Millipore, Bedford, Mass.) and quantitated using a scintillation counter (Packard, Meriden, Conn.).
In the case of `Cn1c(=O)c(-c2ccccc2Cl)cc2cnc(NC3CCN(C(N)=O)CC3)nc21` [compound 11], the IC50 worked out at 4.8 nM.
Same read-out and setting: as for `O=c1c(-c2ccccc2Cl)cc2cnc(N[C@H]3CC[C@H](O)CC3)nc2n1Cc1ccccc1` [Example 41], the figure is 5.1 nM; as for `Cn1c(=O)c(-c2ccccc2Cl)cc2cnc(NC3CCN(CC#N)CC3)nc21` [compound 24], 35.5 nM.
With `Cn1c(=O)c(-c2ccccc2Cl)cc2cnc(NC3(CO)CCCC3)nc21` [Cpd 2], the IC50 amounted to 41.9 nM.
`Cn1c(=O)c(-c2ccccc2Cl)cc2cnc(N[C@H]3CC[C@H](NS(C)(=O)=O)CC3)nc21` [compound 37]: the IC50 came out at 30.5 nM.
Take `Cn1c(=O)c(-c2ccccc2Cl)cc2cnc(N[C@H]3CC[C@H](O)CC3)nc21` [Cpd 1]: the IC50 came out at 20.5 nM.
As to `Cn1c(=O)c(-c2ccccc2Cl)cc2cnc(N[C@H]3CC[C@H](N)CC3)nc21` [Example 38], the IC50 is 6.2 nM.
On to `CCn1c(=O)c(-c2ccccc2Cl)cc2cnc(NC3CCOCC3)nc21.Cl` [Cpd 136], for which the IC50 is 8.2 nM.
With `Cc1ccccc1-c1cc2cnc(NC3CCN(S(=O)(=O)CC(F)(F)F)CC3)nc2n(C)c1=O.Cl` [Cpd 128], the IC50 is 0.6 nM.
`CCCS(=O)(=O)N1CCC(Nc2ncc3cc(-c4ccccc4C)c(=O)n(C)c3n2)CC1.Cl` [Cpd 126]: the IC50 worked out at 0.3 nM.
Turning to `Cl.N#CCn1c(=O)c(-c2ccccc2Cl)cc2cnc(N[C@H]3CC[C@H](O)CC3)nc21` [Example 44], the concentration for half-maximal inhibition (IC50) amounted to 7.8 nM.
On to `Cn1c(=O)c(-c2ccccc2Cl)cc2cnc(NC3CCC4(CC3)NC(=O)NC4=O)nc21` (stereo not drawn) [compound 29], for which the IC50 was 41.5 nM.

By melting point is commonly meant the temperature of the solid-liquid transition. The term IC50 denotes the concentration at which inhibition is half-maximal.
